Columns and labels:
[1] = test system: binding of DC-SIGN-Fc to DV2 JAM particles; set-up: species or system human; settings: DV2 JAM coated particles; ANX5 0.31-20 μg/ml, Duramycin 0.625-5 μM, EDTA 1.25 to 25 mM
Method: All ELISA were performed on Maxisorp 96 well plates (Nunc). PBS diluted DV particles (1.106 FIU) were coated overnight at 4° C. […] Wells were saturated with TBS 1×, 10 mM CaCl2, 2% BSA for 2 h at 37° C. All dilutions were in TBS 1×, 10 mM CaCl2, washes in TBS 1×, 10 mM CaCl2, 0.5% Tween 20, and incubations, 1 h at 4° C. Annexin V or Duramycin were added previously to Fc chimera while EDTA was mixed with Fcs′. All Fcs' were 2 μg/ml. Bound Fcs' were detected with a pAb rabbit anti-human IgG-HRP and OPD substrate.

[2] = molecular target: binding of CD300a-Fc to DV2 JAM particles (Homo sapiens, UniProt Q9UGN4); assay: ELISA: binding of CD300a-Fc to DV2 JAM coated particles in the presence of inhibitor; settings: for inhibition of the binding of CD300a to DV: ANX5 0.31-20 μg/ml or Duramycin 0.625-5 μM added before CD300a-Fc (2 μg/ml); for effect on CD300a-Fc binding to DV (in words): rat mAb 0.625 to 20 μg/ml, EDTA 1.25 to 25 mM mixed with Fc, ANX5, Duramycin added before Fc
Chain of binding of CD300a-Fc to DV2 JAM particles (Q9UGN4 with tags, fused parts or gaps limits assumed): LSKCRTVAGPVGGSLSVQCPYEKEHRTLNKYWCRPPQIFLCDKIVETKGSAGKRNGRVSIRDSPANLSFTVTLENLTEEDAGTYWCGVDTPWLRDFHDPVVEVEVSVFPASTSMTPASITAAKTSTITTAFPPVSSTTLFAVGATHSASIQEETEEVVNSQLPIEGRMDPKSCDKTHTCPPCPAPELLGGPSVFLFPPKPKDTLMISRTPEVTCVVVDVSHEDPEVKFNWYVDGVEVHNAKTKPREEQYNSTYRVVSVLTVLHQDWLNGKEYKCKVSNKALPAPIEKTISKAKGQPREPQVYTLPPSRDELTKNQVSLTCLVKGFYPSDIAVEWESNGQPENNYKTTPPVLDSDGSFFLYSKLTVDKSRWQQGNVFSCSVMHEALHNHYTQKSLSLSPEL
Method: Graph representing the amount of CD300a-Fc bound by DV2 JAM coated particles in the presence of anti-CD300Ab. Serial dilutions of a rat mAb to CD300a or its IgG2a isotype were mixed with CD300a-Fc before incubation with DV2 JAM coated particles. Residual bound Fc was detected with a HRP conjugated rabbit pAb to human IgG (1/1000) and OPD substrat. Data are represented as mean±SD of three independent experiments performed in duplicates.
(§1) Bar chart representing the amount of TIM3-Fc, CD300a-Fc or DV-SIGN-Fc bound to DV2 JAM particles in the presence of different concentration of Annexin V, a PtdSer specific ligand. DV2 JAM particles were coated in 96 well plates and incubated for one hour at +4° C. with various concentrations of the PtdSer specific ligand Annexin V before the addition of human IgG1-Fc, TIM3-Fc, CD300a-Fc or DV-SIGN-Fc (2 μg/ml). Bound Fcs were detected with a HRP conjugated rabbit pAb to human IgG (1/1000) and OPD substrate. Data are represented as mean±SD of three independent experiments performed in duplicates.
Bar chart representing the amount of CD300a-Fc or DV-SIGN-Fc bound to DV2 JAM particles in the presence of different concentration of Duramycin. DV2 JAM particles were coated in 96 well plates and incubated for one hour at +4° C. with various concentrations of the PtdEth specific ligand Duramycin before the addition of human IgG1-Fc, TIM3-Fc, CD300a-Fc or DV-SIGN-Fc (2 μg/ml). Bound Fcs were detected with a HRP conjugated rabbit pAb to human IgG (1/1000) and OPD substrate. Data are represented as mean±SD of three independent experiments performed in duplicates.
Bar chart representing the amount of CD300a-Fc bound by DV2 JAM coated particles in the presence of EDTA. Two fold serial dilutions of EDTA (1-25 mM) were mixed with CD300a-Fc before incubation with DV2 JAM coated particles. Bound Fcs were detected with a HRP conjugated rabbit pAb to human IgG (1/1000) and OPD substrate. Data shown are mean±SD of duplicates wells and representative of three independent experiments.
All ELISA were performed on Maxisorp 96 well plates (Nunc). PBS diluted DV particles (1.106 FIU) were coated overnight at 4° C. Coated 3-sn-phosphatidyl-Choline, -Ethanolamine or -Serine (10 μg/well, Sigma, Lyon, France) were diluted in ethanol and the wells air dried. Wells were saturated with TBS 1×, 10 mM CaCl2, 2% BSA for 2 h at 37° C. All dilutions were in TBS 1×, 10 mM CaCl2, washes in TBS 1×, 10 mM CaCl2, 0.5% Tween 20, and incubations, 1 h at 4° C. Annexin V or Duramycin were added previously to Fc chimera while EDTA was mixed with Fcs′. All Fcs' were 2 μg/ml. Bound Fcs' were detected with a pAb rabbit anti-human IgG-HRP and OPD substrate.

[3] = test system: binding of TIM3-Fc to DV2 JAM particles; assay: ELISA: binding of TIM3-Fc to DV2 JAM coated particles in the presence of Annexin V; set-up: species or system human; settings: ANX5 0.31-20 μg/ml, TIM3-Fc 2 μg/ml
Method: as §1
To identify whether CD300a recognized these phospholipids at the surface of virions, DV2 JAM coated particles were challenged with serially diluted concentrations of the PtdSer specific ligand AnnexinV (ANX5) (0.31-20 μg/ml, FIG. 14) or the PtdEth specific ligand Duramycin (0.625-5 μM, FIG. 15) before the addition of Fc coupled molecules.

Substance | effect on DV/DC-SIGN-Fc binding (in words) [1] | inhibition of the binding of CD300a to DV [2] | effect on CD300a-Fc binding to DV (in words) [2] | binding of TIM3-Fc to DV blocked [3]
Duramycin [reference compound] | left unchanged | up to 98% | inhibited in a concentration dependent manner | –
Annexin V [ANX5] | left unchanged | up to 35% | inhibited in a concentration dependent manner | up to 60%

From US20170000849A1, “CD300A RECEPTORS AS VIRUS ENTRY COFACTORS” (INSTITUT NATIONAL DE LA SANTE ET DE LA RECHERCHE MEDICALE …, priority 2013, published 2017)
